Activity calls are given as the source filed them. No cut-off for these calls is given here. Where a SMILES comes first, the peptide text is derived from it.

Experiment [1] deals with HeLa. Description: Cytotoxicity against human HeLa cells assessed as change in morphology at 18 uM incubated for 24 hrs by phase contrast microscopic assay. It counts as functional, cell-based.
For experiment [2], the system named is A549. Description: Cytotoxicity against human A549 cells assessed as change in morphology at 25 uM incubated for 24 hrs by phase contrast microscopic assay. It counts as functional, cell-based.
In experiment [3] the test system is PC-9. Description: Cytotoxicity against human PC-9 cells assessed as change in morphology at 25 uM incubated for 24 hrs by phase contrast microscopic assay. In kind it is functional, cell-based.
The test system of experiment [4] is NCI-H1975. Description: Cytotoxicity against human NCI-H1975 cells assessed as change in morphology at 25 uM incubated for 24 hrs by phase contrast microscopic assay. It counts as functional, cell-based.
Experiment [5] concerns PC-9. Description: Cytotoxicity against human PC-9 cells at 0.8 to 50 uM incubated for 24 hrs by MTT assay. The settings on record: dose 0.8-50 µM. In kind it is functional, cell-based.
The subject of experiment [6] is A549. Description: Cytotoxicity against human A549 cells at 0.8 to 50 uM incubated for 24 hrs by MTT assay. It counts as functional, cell-based. The settings on record: dose 0.8-50 µM.
The subject of experiment [7] is NCI-H1975. Description: Cytotoxicity against human NCI-H1975 cells at 0.8 to 50 uM incubated for 24 hrs by MTT assay. The settings on record: dose 0.8-50 µM. In kind it is functional, cell-based.
Experiment [8] deals with A549. Description: Induction of cell cycle arrest in human A549 cells at 10 uM incubated for 24 hrs by PI staining based flow cytometry analysis. In kind it is functional.
For experiment [9], the system named is PC-9. The experiment is described as follows: Induction of cell cycle arrest in human PC-9 cells at 10 uM incubated for 24 hrs by PI staining based flow cytometry analysis. In kind it is functional.
Experiment [10] deals with NCI-H1975. The experiment is described as follows: Induction of cell cycle arrest in human NCI-H1975 cells at 10 uM incubated for 24 hrs by PI staining based flow cytometry analysis. It counts as functional.
Experiment [11] concerns HeLa. The experiment is described as follows: Induction of cell cycle arrest in human HeLa cells at 10 uM incubated for 24 hrs by PI staining based flow cytometry analysis. In kind it is functional.
For experiment [12], the target named is E3 ubiquitin-protein ligase UBR1 (Homo sapiens) (UniProt Q8IWV7). Description: Binding affinity to UBR1 (unknown origin) expressed in HEK293T cells incubated for 3 hrs by pull-down assay. In kind it is cell-based.
The target of experiment [13] is E3 ubiquitin-protein ligase UBR2 (Homo sapiens) (UniProt Q8IWV8). Description: Binding affinity to UBR2 (unknown origin) expressed in HEK293T cells incubated for 3 hrs by pull-down assay. In kind it is cell-based.
Experiment [14] has as its system UBR/PLK1 (Homo sapiens). Description: Protac activity at UBR/PLK1 in human HeLa cells assessed as PLK1 degradation at 50 uM by immunoblotting analysis. The settings on record: time 2-48 hrs, TDE = time-dependent effect.
For experiment [15], the system named is UBR/PLK1 (Homo sapiens). The experiment is described as follows: Protac activity at UBR/PLK1 in human HeLa cells assessed as PLK1 degradation incubated for 24 hrs by immunoblotting analysis. The settings on record: dose 25-100 µM.
The subject of experiment [16] is UBR/PLK1 (Homo sapiens). The experiment is described as follows: Protac activity at UBR/PLK1 in human HeLa cells assessed as PLK1 degradation at 50 uM after 24 to 48 hrs by immunoblotting analysis. Conditions: time 24-48 hrs.
Experiment [17] has as its system UBR/PLK1 (Homo sapiens). Description: Protac activity at UBR/PLK1 in human HeLa cells assessed as PLK1 degradation at 50 uM incubated for 24 hrs by immunoblotting analysis.
Experiment [18] deals with UBR/PLK1 (Homo sapiens). Description: Protac activity at UBR/PLK1 in human HeLa cells assessed as PLK1 degradation at 75 uM incubated for 24 hrs by immunoblotting analysis.
Experiment [19] deals with UBR/PLK1 (Homo sapiens). Description: Protac activity at UBR/PLK1 in human HeLa cells assessed as PLK1 degradation at 100 uM incubated for 24 hrs by immunoblotting analysis.
Experiment [20] relates to UBR/PLK1 (Homo sapiens). The experiment is described as follows: Protac activity at UBR/PLK1 in human HeLa cells assessed as PLK1 degradation at 50 uM preincubated for 24 hrs followed by MG132 addition for 8 hrs by immunoblotting analysis. Conditions: time 32.0 hrs.
Experiment [21] is described as follows: In vivo induction of PLK1 degradation in nude mouse xenografted with human NCI-H1975 cells assessed as reduction in PLK1 protein expression at 5 mg/kg, iv administered for every 3 days by Western blotting analysis. In kind it is functional. Also noted: scale not given: the % may be the effect or the level left.
The target in experiment [22] is Serine/threonine-protein kinase PLK1 (Homo sapiens, UniProt P53350). The experiment is described as follows: Binding affinity to PLK1 PBD (unknown origin) by ITC method.
Chain of Serine/threonine-protein kinase PLK1 (P53350 whole entry): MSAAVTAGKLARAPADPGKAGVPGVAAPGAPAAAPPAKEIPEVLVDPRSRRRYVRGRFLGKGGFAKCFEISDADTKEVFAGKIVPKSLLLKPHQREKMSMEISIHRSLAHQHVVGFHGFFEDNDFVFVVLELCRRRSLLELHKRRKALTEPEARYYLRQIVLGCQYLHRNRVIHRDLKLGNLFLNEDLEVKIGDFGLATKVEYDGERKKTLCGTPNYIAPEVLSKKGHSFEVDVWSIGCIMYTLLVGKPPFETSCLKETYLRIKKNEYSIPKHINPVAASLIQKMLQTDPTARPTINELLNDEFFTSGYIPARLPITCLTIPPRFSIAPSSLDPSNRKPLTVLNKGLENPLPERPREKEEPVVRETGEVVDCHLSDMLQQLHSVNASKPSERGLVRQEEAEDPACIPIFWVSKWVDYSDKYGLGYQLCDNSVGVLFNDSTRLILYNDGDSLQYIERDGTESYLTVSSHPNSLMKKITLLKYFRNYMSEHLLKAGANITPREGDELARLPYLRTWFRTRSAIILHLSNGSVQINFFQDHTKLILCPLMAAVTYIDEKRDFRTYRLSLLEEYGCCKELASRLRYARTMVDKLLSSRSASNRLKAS

Chain of E3 ubiquitin-protein ligase UBR2 (Homo sapiens) (Q8IWV8 whole entry): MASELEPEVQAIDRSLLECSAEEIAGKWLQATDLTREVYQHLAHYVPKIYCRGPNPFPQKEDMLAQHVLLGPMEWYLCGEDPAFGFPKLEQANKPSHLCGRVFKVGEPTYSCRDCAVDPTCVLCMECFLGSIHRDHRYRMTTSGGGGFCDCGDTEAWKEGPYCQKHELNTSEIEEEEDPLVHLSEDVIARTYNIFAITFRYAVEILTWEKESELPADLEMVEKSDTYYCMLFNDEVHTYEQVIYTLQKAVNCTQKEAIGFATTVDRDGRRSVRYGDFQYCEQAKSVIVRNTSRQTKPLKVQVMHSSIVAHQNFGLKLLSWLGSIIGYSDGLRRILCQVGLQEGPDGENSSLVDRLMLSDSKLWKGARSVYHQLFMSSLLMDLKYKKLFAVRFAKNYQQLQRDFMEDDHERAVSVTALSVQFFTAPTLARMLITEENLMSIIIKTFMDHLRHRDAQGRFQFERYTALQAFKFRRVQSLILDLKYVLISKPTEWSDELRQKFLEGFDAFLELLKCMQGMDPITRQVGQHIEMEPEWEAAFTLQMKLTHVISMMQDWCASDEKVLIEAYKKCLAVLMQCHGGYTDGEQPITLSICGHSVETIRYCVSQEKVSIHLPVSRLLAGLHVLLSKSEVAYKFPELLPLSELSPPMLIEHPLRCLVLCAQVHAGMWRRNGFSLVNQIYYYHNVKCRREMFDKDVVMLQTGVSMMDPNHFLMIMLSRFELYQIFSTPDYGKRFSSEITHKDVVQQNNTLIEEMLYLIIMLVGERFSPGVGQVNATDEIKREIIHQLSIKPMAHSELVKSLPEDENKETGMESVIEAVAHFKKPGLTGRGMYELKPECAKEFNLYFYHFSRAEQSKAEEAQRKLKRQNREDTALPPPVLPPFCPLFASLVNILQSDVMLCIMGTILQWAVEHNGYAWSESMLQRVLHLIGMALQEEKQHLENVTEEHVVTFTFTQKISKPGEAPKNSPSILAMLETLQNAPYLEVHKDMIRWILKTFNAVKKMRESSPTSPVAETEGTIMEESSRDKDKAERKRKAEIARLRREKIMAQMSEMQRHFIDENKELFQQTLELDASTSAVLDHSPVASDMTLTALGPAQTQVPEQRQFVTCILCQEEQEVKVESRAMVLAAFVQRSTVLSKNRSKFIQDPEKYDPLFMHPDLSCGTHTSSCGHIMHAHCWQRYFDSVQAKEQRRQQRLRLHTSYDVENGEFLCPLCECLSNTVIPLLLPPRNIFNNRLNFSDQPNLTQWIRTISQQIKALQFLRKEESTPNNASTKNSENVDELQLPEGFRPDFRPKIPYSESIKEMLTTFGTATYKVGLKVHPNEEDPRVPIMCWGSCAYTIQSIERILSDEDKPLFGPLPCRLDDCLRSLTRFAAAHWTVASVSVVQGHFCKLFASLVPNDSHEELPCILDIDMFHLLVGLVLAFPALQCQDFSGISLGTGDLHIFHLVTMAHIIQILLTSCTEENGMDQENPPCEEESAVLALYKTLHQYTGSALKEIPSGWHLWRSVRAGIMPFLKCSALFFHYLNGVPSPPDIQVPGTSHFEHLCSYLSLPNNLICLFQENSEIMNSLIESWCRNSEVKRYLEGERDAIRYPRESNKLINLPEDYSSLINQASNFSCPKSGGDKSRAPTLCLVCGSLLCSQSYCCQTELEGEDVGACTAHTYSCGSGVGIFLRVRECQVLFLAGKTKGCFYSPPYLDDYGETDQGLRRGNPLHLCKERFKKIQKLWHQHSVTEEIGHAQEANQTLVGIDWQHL
Chain of E3 ubiquitin-protein ligase UBR1 (Homo sapiens) (Q8IWV7 whole entry): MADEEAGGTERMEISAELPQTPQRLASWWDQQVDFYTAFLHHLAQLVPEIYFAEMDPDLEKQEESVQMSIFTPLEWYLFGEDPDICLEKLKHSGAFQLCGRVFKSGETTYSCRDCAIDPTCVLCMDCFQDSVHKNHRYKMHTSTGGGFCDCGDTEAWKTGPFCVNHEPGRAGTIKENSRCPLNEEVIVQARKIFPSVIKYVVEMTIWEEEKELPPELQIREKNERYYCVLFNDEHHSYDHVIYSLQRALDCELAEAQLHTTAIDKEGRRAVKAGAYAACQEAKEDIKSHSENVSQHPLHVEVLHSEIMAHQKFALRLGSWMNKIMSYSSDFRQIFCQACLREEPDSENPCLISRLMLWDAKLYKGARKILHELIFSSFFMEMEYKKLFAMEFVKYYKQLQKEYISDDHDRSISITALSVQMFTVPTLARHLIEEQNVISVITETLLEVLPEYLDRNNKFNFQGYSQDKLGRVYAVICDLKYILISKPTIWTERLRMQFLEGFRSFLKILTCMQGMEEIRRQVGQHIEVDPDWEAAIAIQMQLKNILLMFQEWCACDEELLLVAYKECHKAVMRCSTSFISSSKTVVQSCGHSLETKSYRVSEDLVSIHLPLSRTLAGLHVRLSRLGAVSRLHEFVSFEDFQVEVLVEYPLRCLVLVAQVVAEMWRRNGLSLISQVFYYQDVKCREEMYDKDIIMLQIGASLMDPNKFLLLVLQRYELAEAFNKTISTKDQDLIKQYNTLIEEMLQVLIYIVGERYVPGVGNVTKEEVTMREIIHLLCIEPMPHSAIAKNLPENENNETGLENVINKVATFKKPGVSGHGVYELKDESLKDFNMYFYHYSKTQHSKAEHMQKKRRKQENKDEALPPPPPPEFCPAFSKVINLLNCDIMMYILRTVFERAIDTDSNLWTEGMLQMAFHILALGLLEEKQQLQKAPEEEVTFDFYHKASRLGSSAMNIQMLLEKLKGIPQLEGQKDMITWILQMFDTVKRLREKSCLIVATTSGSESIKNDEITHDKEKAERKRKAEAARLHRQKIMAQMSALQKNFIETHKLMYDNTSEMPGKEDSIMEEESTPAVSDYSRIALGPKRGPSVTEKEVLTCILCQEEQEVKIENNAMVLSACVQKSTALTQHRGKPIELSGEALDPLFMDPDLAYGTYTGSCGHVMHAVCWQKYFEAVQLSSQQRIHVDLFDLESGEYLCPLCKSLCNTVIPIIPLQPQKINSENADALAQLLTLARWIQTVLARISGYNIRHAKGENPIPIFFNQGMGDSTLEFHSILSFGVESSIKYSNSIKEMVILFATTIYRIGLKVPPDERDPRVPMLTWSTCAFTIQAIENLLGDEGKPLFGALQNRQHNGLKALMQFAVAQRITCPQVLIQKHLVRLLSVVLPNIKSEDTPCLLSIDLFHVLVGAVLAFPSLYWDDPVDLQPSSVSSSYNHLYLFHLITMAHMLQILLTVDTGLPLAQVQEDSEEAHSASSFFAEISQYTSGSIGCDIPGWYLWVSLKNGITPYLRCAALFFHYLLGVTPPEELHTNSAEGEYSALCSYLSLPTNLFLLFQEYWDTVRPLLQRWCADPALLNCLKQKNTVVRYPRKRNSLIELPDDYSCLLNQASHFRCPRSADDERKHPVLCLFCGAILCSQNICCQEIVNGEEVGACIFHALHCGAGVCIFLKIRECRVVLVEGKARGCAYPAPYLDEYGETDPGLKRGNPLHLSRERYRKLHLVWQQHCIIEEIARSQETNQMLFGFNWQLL

On to `N=C(N)NCCC[C@H](NC(=O)[C@H](CCCNC(=N)N)NC(=O)[C@H](CCCNC(=N)N)NC(=O)[C@H](CCCNC(=N)N)NC(=O)[C@H](CCCNC(=N)N)NC(=O)[C@H](CCCNC(=N)N)NC(=O)[C@H](CCCNC(=N)N)NC(=O)[C@H](CCCNC(=N)N)NC(=O)[C@H](CCCNC(=N)N)NC(=O)[C@H](CCCNC(=N)N)NC(=O)[C@H](CCCNC(=N)N)NC(=O)[C@@H](N)CCCNC(=N)N)C(N)=O`, for which the result in experiment [1], in experiment [2], in experiment [3], in experiment [4], in [5] and in [6] was inactive. Also, the outcome in experiment [7], in [8], in experiment [9], in [10] and in [11] was inactive.
With `C[C@@H](OP(=O)(O)O)[C@@H]1NC(=O)[C@H](Cc2cncn2CCCCCCCCc2ccccc2)NC(=O)[C@@H](N)CCC(=O)NCCCC[C@@H](C(N)=O)NC1=O` (HELM PEPTIDE1{E.[O=C([C@H](Cc1cncn1CCCCCCCCc1ccccc1)N[*:1])[*:2]].[C[C@@H](OP(=O)(O)O)[C@H](N[*:1])C(=O)[*:2]].K.[am]}$PEPTIDE1,PEPTIDE1,1:R3-4:R3$$$V2.0), the result in experiment [1], in experiment [2], in [3], in [4], in experiment [5] and in experiment [6] was inactive. Further, the result in experiment [7] was inactive.
In the case of `CC(C)C[C@H](NC(=O)[C@H]1CCCN1C(=O)CCCCCNC(=O)[C@H](CCCNC(=N)N)NC(=O)[C@H](CCCNC(=N)N)NC(=O)[C@H](CCCNC(=N)N)NC(=O)[C@H](CCCNC(=N)N)NC(=O)[C@H](CCCNC(=N)N)NC(=O)[C@H](CCCNC(=N)N)NC(=O)[C@H](CCCNC(=N)N)NC(=O)[C@H](CCCNC(=N)N)NC(=O)[C@H](CCCNC(=N)N)NC(=O)[C@H](CCCNC(=N)N)NC(=O)[C@H](CCCNC(=N)N)NC(=O)[C@@H](N)CCCNC(=N)N)C(=O)N[C@@H](Cc1cnc[nH]1)C(=O)N[C@@H](CO)C(=O)N[C@H](C(N)=O)[C@@H](C)OP(=O)(O)O`, the outcome in [12] and in [13] was Active. For the same compound, the Activity entry in experiment [14] is “Tde”; in experiment [15], “Dose-Dependent Effect”; in experiment [16], 90%; in experiment [17], 60%; in [18], 70%; in experiment [19], 70%. The result in experiment [20] was inactive.
For `C=CC(=O)Nc1cc(Nc2nccc(-c3cn(C)c4ccccc34)n2)c(OC)cc1N(C)CCN(C)C` [OSIMERTINIB], in experiment [21], the Activity is given as above 60%.
In experiment [22], `CC(C)C[C@H](NC(=O)[C@@H]1CCCN1C(=O)CCCCCNC(=O)[C@H](CCCNC(=N)N)NC(=O)[C@H](CCCNC(=N)N)NC(=O)[C@H](CCCNC(=N)N)NC(=O)[C@H](CCCNC(=N)N)NC(=O)[C@H](CCCNC(=N)N)NC(=O)[C@H](CCCNC(=N)N)NC(=O)[C@H](CCCNC(=N)N)NC(=O)[C@H](CCCNC(=N)N)NC(=O)[C@H](CCCNC(=N)N)NC(=O)[C@H](CCCNC(=N)N)NC(=O)[C@H](CCCNC(=N)N)NC(=O)[C@@H](N)CCCNC(=N)N)C(=O)N[C@@H](Cc1cnc[nH]1)C(=O)N[C@@H](CO)C(=O)N[C@H](C(N)=O)[C@@H](C)OP(=O)(O)O` registered a Kd of 2.2 µM.

These data come from ChEMBL document CHEMBL5518167, “Degradation of Polo-like Kinase 1 by the Novel Poly-Arginine N-Degron Pathway PROTAC Regulates Tumor Growth in Nonsmall Cell Lung Cancer” (J Med Chem, 2024).
